The text below walks through data of paper PMC12406195, “Understanding the Modes of Action of β‑Ketoiminato Iridium(III) Complexes in Cancer Cells” (Inorganic Chemistry, 2025).

For one series, the system named is MDA-MB-231 cells. As to the kind of experiment: Chemosensitivity (MTT cell viability) assay, MDA-MB-231. It counts as cell-based, human. To be noted: for IC50: n = 9; for Selectivity index (SI): MDA-MB-231 compared to ARPE-19, 96 h. How it is done: (§1) All cytotoxicity assays were conducted using human cell lines: breast adenocarcinomas (MDA-MB-231 and MCF-7), pancreatic carcinoma (MIA PaCa-2) and non-cancerous epithelial retinal (ARPE-19) cell lines. All cell lines were routinely maintained as monolayer cultures in appropriate complete media:
(§2) MCF-7, MIA PaCa-2 and ARPE-19 in high glucose DMEM and MDA-MB-231 in RPMI-1640, and both media were supplemented with 10% FBS, 1 mM sodium pyruvate, 2 mM L-glutamine, and 1% pen-strep. All cells were initially grown in T-25 or T-75 flasks at 37 °C and 5% CO2. Before chemosensitivity studies, cell monolayers were passaged using trypsin-EDTA (0.05%) and diluted to a concentration of 1 x 10^4 cells/mL (or 4 x 10^4 cells mL for 24 h assays). All assays were conducted in 96-well plates, in which 100 µL of the cell suspension was added for 24 h at 37 °C and 5% CO2, and then 100 µL of compound/medium dilutions for a further 96 h (or 24 h). All compound stocks were made using sterile DMSO at 100 mM before dilution, and a maximum of 0.1% DMSO was used in each assay. After incubation, 3-(4,5-dimethylthiazol-2-yl)-2,5-diphenyltetrazolium bromide (20 µL, 5 mg/mL in PBS) was added to each well and incubated for 3 h at 37°C and 5% CO2. All solutions were then aspirated, DMSO (150 µL) added to each well, gently mixed, and the absorbance was measured at 540 nm using a ClarioStar spectrophotometer microplate reader. Results were plotted on a logarithmic scale, and the half maximal inhibitory concentration (IC50) was determined from a triplicate of triplicate repeats (n = 9) and reported as an IC 50 ± Standard Deviation (SD).

In the next series the test system is MCF-7 cells. As to the kind of experiment: Chemosensitivity (MTT cell viability) assay, MCF-7. It counts as cell-based, human. The note with it: for IC50: MCF-7, 96 h, n = 9; for Selectivity index (SI): MCF-7 compared to ARPE-19, 96 h. As for the experimental part: as §1, §2
The next series concerns MIA PaCa-2 cells. As to the kind of experiment: Chemosensitivity (MTT cell viability) assay, MIA PaCa-2. The format is cell-based, human. To be noted: for IC50: MIA PaCa-2, 96 h, n = 9; for Selectivity index (SI): MIA PaCa-2 compared to ARPE-19, 96 h. How it is done:
as §1, §2

For the next series, the system named is ARPE-19 cells. As to the kind of experiment: Chemosensitivity (MTT cell viability) assay, noncancerous ARPE-19. The format is cell-based, human. To be noted: ARPE-19 noncancerous, 96 h, n = 9. How it is done:
The cytotoxicity of the compounds against the cancer cell lines was also compared to the noncancerous retinal epithelial cell line, ARPE-19, to determine the possibility of cancer cell selectivity. […]
as §1, §2

Series [1] can be described thus: Stability by UV/vis spectroscopy in fully supplemented phenol-red free media. It counts as physicochemical. To be noted: 37 °C, monitored over 96 h. How it is done:
d6/D2O mixture (70/30) spiked with 0.1 M NaCl for 96 hours, before HR -MS was conducted; these are […]
Stability Assay by NMR Spectroscopy
Compounds 1-4 (3-4 mg) were dissolved in a 500 µL mixture of 90% DMSO -d6 and 10% D2O. 1H and 31P NMR spectra were obtained by a Bruker Avance 500 MHz at room temperature and multiple time points over 4 days. A solution of sodium chloride in D2O (26.3 g/L, 143 µL) was added to the same samples (final concentration 0.1 M NaCl in 70 % DMSO-d6 and 30% D2O) to mimic the chloride concentration in blood. 1H and 31P NMR spectra were obtained by a Bruker Avance 500 MHz at room temperature and multiple time points over 4 days.
Stability Assays by UV/vis Spectroscopy
The compounds were dissolved in DMSO and added to fully supplemented DMEM phenol-red free media (see Cell Viability Assays section for all additives) under sterile conditions to obtain a final concentration of 60 µg/mL. UV/vis spectra were obtained every 30 min for 96 h at 37 °C.
as §1
MCF-7, MIA PaCa-2 and ARPE-19 in high glucose DMEM and MDA-MB-231 in RPMI-1640, and both media were supplemented with 10% FBS, 1 mM sodium pyruvate, 2 mM L-glutamine, and 1% pen-strep. All cells were initially grown in T-25 or T-75 flasks at 37 °C and 5% CO2. […] All solutions were then aspirated, DMSO (150 µL) added to each well, gently mixed, and the absorbance was measured at 540 nm using a ClarioStar spectrophotometer microplate reader. Results were plotted on a logarithmic scale, and the half maximal inhibitory concentration (IC50) was determined from a triplicate of triplicate repeats (n = 9) and reported as an IC 50 ± Standard Deviation (SD).

In the next series the test system is plasmid DNA. As to the kind of experiment: Plasmid DNA interaction, agarose gel electrophoresis. It counts as biochemical. To be noted: 200 ng plasmid DNA, 100–400 μM, cell-free. As for the experimental part: The ability of compounds to intercalate, nick, or cleave DNA can be evaluated using gel electrophoresis with plasmid DNA. In this study, in vitro plasmid DNA assays were performed by incubating 200 ng of plasmid DNA with different concentrations (100–400 μM) of 1 or CDDP, which served as a positive control. The DNA fragments were then separated via agarose gel electrophoresis, and potential changes in DNA migration patterns were analyzed.
5 Plasmid DNA (200 ng) was incubated with varying concentrations (100, 200, and 400 μM) of compound 1 or CDDP for 24 h at room temperature. The DNA was then separated via agarose gel electrophoresis, and the intensity of supercoiled and nicked circular DNA bands was quantified and expressed as mean ± SEM (n = 4).
MDA-MB-231 cells at 4000 cells/well were seeded into a black clear -bottom 96-well plate using phenol-red free complete RMPI medium, and incubated for 48 h. […] Fluorescence images were obtained using a Zeiss Observer 7 inverted microscope at excitation at 488 nm and emission at 509 […]
Plasmid DNA (200 ng, pBOS -H2B-GFP, BD Biosciences) was incubated overnight at room temperature with 1 or CDDP at concentrations between 100 and 400 μM in double -distilled H2O (20 μL total volume). […] The experiment was conducted in two biological replicates, and the band intensities were quantified and analyzed using ImageJ software. […]

For the compound “[Cp*Ir(C16H13BrNO)(PTA)](PF6) [Compound 3]”, the IC50 was determined as 22 ± 1 µM with MDA-MB-231 cells (MDA-MB-231, 24 h); 4.8 ± 0.5 µM in the series on MDA-MB-231 cells (MDA-MB-231, 96 h); 32.4 ± 0.3 µM in the series on MCF-7 cells; 11.2 ± 0.1 µM in the series with MIA PaCa-2 cells; 14.6 ± 0.8 µM in the series on ARPE-19 cells. Further, the figures for the “Selectivity index (SI)” value in the series on MDA-MB-231 cells, with MCF-7 cells and in the series with MIA PaCa-2 cells were 3.0, 0.5 and 1.3, respectively. The “Time to full decomposition (no further changes in UV/vis spectra)” value (from here on “Time … (no further changes in UV/vis spectra)”) in series [1] is reported as “over 96 h”.
Consider “[Cp*Ir(C18H18NO2)(PTA)](PF6) [Compound 4]”, for which the IC50 came out at 36 ± 1 µM in the series on MDA-MB-231 cells (MDA-MB-231, 24 h); 4.1 ± 0.5 µM with MDA-MB-231 cells (MDA-MB-231, 96 h); 34.3 ± 0.6 µM in the series with MCF-7 cells; 10 ± 1 µM with MIA PaCa-2 cells; 10.7 ± 0.4 µM in the series with ARPE-19 cells. For the same compound, the “Selectivity index (SI)” value in the series on MDA-MB-231 cells stood at 2.6; with MCF-7 cells, 0.3; in the series with MIA PaCa-2 cells, 1.1. Also, the “Time … (no further changes in UV/vis spectra)” value in series [1] was 72 h.
Regarding `[NH2][Pt]([NH2])([Cl])[Cl]` [CDDP, cisplatin, reference compound], the IC50 was above 100 µM in the series on MDA-MB-231 cells (MDA-MB-231, 24 h); 2.2 ± 0.3 µM with MDA-MB-231 cells (MDA-MB-231, 96 h); 6.1 ± 0.9 µM in the series on MCF-7 cells; 3.9 ± 0.6 µM with MIA PaCa-2 cells; 6 ± 0.2 µM in the series on ARPE-19 cells. For the same compound, the “Selectivity index (SI)” value amounted to 2.7 with MDA-MB-231 cells, 1.0 in the series on MCF-7 cells and 1.5 in the series on MIA PaCa-2 cells. In the series with plasmid DNA, the “Plasmid DNA migration” value is “faster DNA migration”.
As for “[Cp*Ir(C16H12Cl2NO)(PTA)](PF6) [Compound 2]”, the IC50 was 21 ± 1 µM with MDA-MB-231 cells (MDA-MB-231, 24 h); 5.4 ± 0.3 µM in the series on MDA-MB-231 cells (MDA-MB-231, 96 h); 45.1 ± 0.8 µM in the series with MCF-7 cells; 14.9 ± 0.7 µM in the series with MIA PaCa-2 cells; 16 ± 1 µM in the series with ARPE-19 cells. The “Selectivity index (SI)” value in the series on MDA-MB-231 cells is on record as 3.0; with MCF-7 cells it was 0.4; in the series on MIA PaCa-2 cells, 1.1. The “Time … (no further changes in UV/vis spectra)” value in series [1] amounted to 64 h.
For the compound `N.N.O=C([O-])C1(C(=O)[O-])CCC1.[Pt+2]` [CARB, carboplatin, reference compound], the IC50 in the series with MDA-MB-231 cells (MDA-MB-231, 24 h) was above 100 µM; in the series on MDA-MB-231 cells (MDA-MB-231, 96 h), 16 ± 1 µM; in the series with MCF-7 cells, 40 ± 1 µM; in the series with MIA PaCa-2 cells, 40 ± 4 µM; in the series on ARPE-19 cells, above 100 µM. Also, the “Selectivity index (SI)” value is recorded as above 6.3 in the series with MDA-MB-231 cells, above 2.5 with MCF-7 cells and above 2.5 with MIA PaCa-2 cells.

As a reminder, the IC50 is the concentration at which inhibition is half-maximal. Low readings indicate greater potency, high ones weaker potency.
